Reference: article PMC6615261, “Repurposing Azithromycin and Rifampicin Against Gram-Negative Pathogens by Combination With Peptidomimetics” (Frontiers in Cellular and Infection Microbiology, 2019)
Like-named read-outs stand apart in the source and are kept apart here.

What was measured:
K. pneumoniae ST258 [1] = assay: MIC by broth microdilution; assay type: cell-based, Klebsiella pneumoniae
How it was run: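 Checkerboard data set the combination ratios (2:1 with rifampicin, 1:4 with azithromycin, peptidomimetic first). MICs then followed CLSI broth microdilution, and potentiation used commercial antibiotic-gradient plates with peptidomimetic added right before inoculation.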

[2] = MTS/PMS cell viability assay; assay type: cell-based, mouse; settings: mouse, NIH 3T3 fibroblasts, 1 h exposure, read-out: Cytotoxicity NIH 3T3 EC50 ± SD
How it was run: (§1)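 NIH 3T3 and HepG2 cells at 80–90% confluence exposed 1 h to compound in serum-free medium, then MTS/PMS added for 1 h at 37 °C; absorbance read at 492 nm. Viability normalized to medium (0% death) and 0.2% SDS (100% death); EC50 from Hill fit constrained 0–100%, technical triplicates.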

[3] = MTS/PMS cell viability assay; assay type: cell-based; settings: human, HepG2 hepatocytes, 1 h exposure, read-out: Cytotoxicity HepG2 EC50 ± SD
How it was run: as §1

[4] = system: isolates of E. coli, K. pneumoniae and P. aeruginosa; assay: Induction of susceptibility in MDR isolates (summary over all three species); assay type: cell-based; settings: peptidomimetic 1 at ≤1 μM; 30 of 36 isolates
Source text: (§2) Bacterial strains used in this study comprise MDR clinical isolates of E. coli ST131 (Cerquetti et al., [2010]) and K. pneumoniae ST258 (Jana et al., [2017]), and American type culture collection (ATCC) strains: ATCC 25922 (E. coli), ATCC 13883 (K. pneumoniae), and ATCC 27853 (P. aeruginosa). Additional clinical isolates of E. coli, K. pneumoniae, and P. aeruginosa resistant to β-lactams (including carbapenems and cephalosporins) were provided by Laurent Poirel, Université de Fribourg, Switzerland. The following growth media was routinely used for bacterial culturing: Luria-Burtani (LB), cation-adjusted Mueller-Hinton agar (MHA) and broth (MHB II). All assays were performed in cation-adjusted MHA or MHB II. […]
Minimal inhibitory concentrations (MICs) of peptidomimetics, antibiotics and their combinations were determined by broth microdilution according to the Clinical Laboratory Standards Institute performance standards (Clinical and Laboratory Standards Institute, [2013]). […] Potentiation of additional antibiotics by peptidomimetics was determined by using commercial 96-well plates containing varied concentrations of standard antibiotics (COMPAN1F; Trek Diagnostic Systems Inc.). The peptidomimetics were added immediately prior to inoculation with pathogen, and then MICs were determined as above. […] Minimal bactericidal concentrations (MBCs) were determined by using growth-curve assay plates. […]

K. pneumoniae ST258 [5] = assay: Screening of peptidomimetic-antibiotic combinations (growth / growth inhibition); assay type: cell-based, Klebsiella pneumoniae; design: key to Growth in combination with RIF / Growth in combination with AZM: Growth (+); growth inhibition (–)
E. coli ST131 = assay: MIC by broth microdilution; assay type: cell-based, Escherichia coli; settings: peptidomimetic alone
How it was run: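 First, MIC plates were set up by CLSI broth microdilution. Next, they were incubated at 37°C with shaking while OD600 was logged at 10 min intervals for 24 h. Finally, non-growing wells were diluted 10-fold in saline and plated onto MHA.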

[6] = system: P. aeruginosa clinical isolates and reference strains; assay: MIC of fixed-ratio peptidomimetic 1-antibiotic combinations in clinical isolates and reference strains; assay type: cell-based, Pseudomonas aeruginosa; settings: with rifampicin or azithromycin
Source text: as §2, with “II. Antibiotics were purchased from Sigma-Aldrich and the peptidomimetic collection (Table S1) was curated and provided by Henrik Franzyk.” for “II.”
Minimal inhibitory concentrations (MICs) of peptidomimetics, antibiotics and their combinations were determined by broth microdilution according to the Clinical Laboratory Standards Institute performance standards (Clinical and Laboratory Standards Institute, [2013]). […] Potentiation of additional antibiotics by peptidomimetics was determined by using commercial 96-well plates containing varied concentrations of standard antibiotics (COMPAN1F; Trek Diagnostic Systems Inc.). The peptidomimetics were added immediately prior to inoculation with pathogen, and then MICs were determined as above. The MICs of peptidomimetic/antibiotic combinations were determined according to the method above, and the concentration ratios were selected based upon checkerboard results with 2:1 and 1:4 ratio of peptidomimetic with rifampicin or azithromycin, respectively. Minimal bactericidal concentrations (MBCs) were determined by using growth-curve assay plates. […] Growth was recorded at 10 min intervals as optical density (OD) at 600 nm during 24 h. […]

MDR E. coli ST131 = assay: Screening of peptidomimetic-antibiotic combinations (growth / growth inhibition); assay type: cell-based, Escherichia coli; design: key to Growth in combination with RIF / Growth in combination with AZM: Growth (+); growth inhibition (–)
[7] = 0.5 μM peptidomimetic + 0.5 μg/mL rifampicin
[8] = 0.5 μM peptidomimetic + 1 μg/mL azithromycin
[9] = peptidomimetic 0.5 μM + azithromycin 1 μg/mL
[10] = peptidomimetic 0.5 μM + rifampicin 0.5 μg/mL

MIC K. pneumoniae ST258 (K. pneumoniae ST258 [1]; peptidomimetic alone): 16 µM | MIC E. coli ST131 (E. coli ST131): 2 µM
SMILES: NCCCC[C@H](NC(=O)CCN(Cc1ccccc1)C(=O)[C@H](CCCCN)NC(=O)CCN(Cc1ccccc1)C(=O)[C@H](CCCCN)NC(=O)CCN(Cc1ccccc1)C(=O)[C@H](CCCCN)NC(=O)CCN(Cc1ccccc1)C(=O)[C@H](CCCCN)NC(=O)CCN(Cc1ccccc1)C(=O)[C@H](CCCCN)NC(=O)CCN(Cc1ccccc1)C(=O)[C@H](CCCCN)NC(=O)CCN(Cc1ccccc1)C(=O)[C@@H](N)CCCCN)C(=O)N(CCC(N)=O)Cc1ccccc1 [Peptidomimetic 1, H-(Lys-βNPhe)8-NH2]
Selectivity Index (SI) K. pneumoniae ST258 (K. pneumoniae ST258 [1]; average of EC50 (HepG2, NIH 3T3) divided by MIC): (10) | EC50 at 1 h [2]: 211 ± 26.8 µM | EC50 at 1 h [3]: 124 ± 0.81 µM | Isolates in which susceptibility to rifampicin and azithromycin was induced [4]: 83% | Screening result with rifampicin (K. pneumoniae ST258 [5]; [7]): inhibit growth | Screening result with azithromycin (K. pneumoniae ST258 [5]; [8]): prevented growth | Growth in combination with AZM (K. pneumoniae ST258 [5]; [9]): – | Growth in combination with RIF (K. pneumoniae ST258 [5]; [10]): – | Peptidomimetic concentration typically required, P. aeruginosa isolates [6]: 1 to 8 µM | Screening result with rifampicin (MDR E. coli ST131; [7]): inhibit growth | Screening result with azithromycin (MDR E. coli ST131; [8]): prevented growth | Growth in combination with AZM (MDR E. coli ST131; [9]): – | Growth in combination with RIF (MDR E. coli ST131; [10]): –
